Measurements published in US12653860B2, “Compositions and methods for editing beta-globin for treatment of hemaglobinopathies” (Vertex Pharmaceuticals Incorporated, priority 2019, dated 2026).

Legend:
[1] = system: GFP gene encoded in the AAVS1 locus of HEK293 T cells; assay: Indel formation by TIDE analysis, GFP to BFP edit; type: cell-based; settings: regardless of ssODN or gRNA; vs DMSO control; FIGS. 2C-2D
Procedure: (§1) The effect of DNA PK inhibition by Nu7441 correction of a DSB by the NHEJ pathway (e.g., introduce an indel at the DSB site) or HDR pathway (e.g., introduce a gene mutation encoded by a homology donor at the DSB site) was assessed using the reporter system described in Example 1. In this case gene-editing was evaluated in HEK293 T cells expressing GFP in the AAVS1 locus. To introduce a gene edit that converts GFP to BFP, cells were electroporated with ribonucleoprotein (RNP) comprised of Cas9 and gRNA1 (GFP target sequence identified by SEQ ID NO: 9; sgRNA spacer sequence identified by SEQ ID NO: 10) or gRNA2 (GFP target sequence identified by SEQ ID NO: 11; sgRNA spacer identified by SEQ ID NO: 12) that targets the GFP gene encoded in the AAVS1 locus. The cells were also transfected with ssODNs that encoded the gene correction necessary to convert GFP to BFP and homology arms complimentary to the sequence upstream and downstream of the target gene cut site. The efficiency of HDR repair was determined by measuring the level of cell BFP fluorescence. The efficiency of cutting (indel information) was monitored by TIDE analysis.
Shown in FIGS. 2C-2D is a measure of indel formation performed by TIDE analysis for the same edits that are described for FIGS. 2A-2B. […] Thus, the DNA PK inhibitor Nu7441 achieves reduced repair of a DSB by the NHEJ pathway when a homology donor is provided.

[2] = system: GFP gene encoded in the AAVS1 locus of HEK293 T cells; assay: GFP to BFP reporter assay of HDR repair (BFP fluorescence); type: cell-based; settings: four ssODNs
Procedure: as §1
Shown in FIGS. 2A-2B is a comparison of HDR editing efficiency for cells treated with Nu7441, SCR7, or RS-1. Shown in FIG. 2A are cells were electroporated with RNP comprising Cas9 and gRNA1 (GFP target sequence shown in SEQ ID NO: 9; sgRNA spacer sequence identified by SEQ ID NO: 10). 2×10^5 cells were edited with 1 μM Cas9 and 1.5 μM gRNA1. The cells were transfected with four different ssODNs. These included ssODN 1067 (SEQ ID NO: 29) and ssODN 1069 (SEQ ID NO: 31) that are complimentary to the DNA strand containing the PAM sequence and ssODN 1068 (SEQ ID NO: 30) and ssODN 1070 (SEQ ID NO: 32) that are complimentary to the DNA strand not containing the PAM sequence. Cells were edited with 100 μM ssODN. A concentrated stock solution of each inhibitor was prepared in DMSO and diluted to a final concentration of 2.5 μM Nu7441, 1.25 μM SCR7, or 10 μM RS-1. HDR efficiency was compared relative to treatment with DMSO alone or to treatment with RNP-only.
Shown in FIG. 2B are cells were electroporated with RNP comprising Cas9 and gRNA2 (GFP target sequence shown in SEQ ID NO: 11; sgRNA spacer sequence shown in SEQ ID NO: 12). The cells were transfected with four different ssODNs. These included ssODN 1061 (SEQ ID NO: 33) and ssODN 1063 (SEQ ID NO: 35) that are complimentary to the DNA strand containing the PAM sequence and ssODN 1062 (SEQ ID NO: 34) and ssODN 1064 (SEQ ID NO: 36) that are complimentary to the DNA strand not containing the PAM sequence.

cKit mice [3] = assay: Lineage analysis of engrafted human CD45-expressing cells in mouse bone marrow; type: in vivo
Procedure: (§2) Presence of human hematopoietic cells was measured by flow cytometry in mouse blood or bone marrow samples. Cells were gated on singlet, live cells. Mouse and human CD45-expressing hematopoietic cells were distinguished by antibodies targeting mouse or human CD45. Engraftment was measured as percent chimerism which was defined as the quantity of human CD45 positive cells divided by the total number of CD45 positive cells (e.g., human and mouse CD45 expressing cells combined). The lineage of human CD45 positive cells was determined using markers for CD19 (e.g., B cells), CD3 (e.g., T cells), CD33 (e.g., myeloid cells), and CD34 (hematopoietic stem/progenitor cells (HSPCs)).
Shown in FIGS. 18A-18B is lineage analysis of engrafted CD45-expressing human cells in mouse bone marrow samples collected at 16 weeks post administration of LT-HSPCs. The lineage of CD45-expressing human leukocytes was evaluated for unedited LT-HSPCs administered at a dose of 0.01×10^6, 0.05×10^6, 0.1×10^6, or 0.25×10^6 cells (FIG. 18A). The lineage of CD45-expressing human leukocytes was also evaluated for LT-HSPCs edited with AAV+RNP either in the presence or absence of i53 (FIG. 18B).
Shown in FIG. 25 is lineage analysis of engrafted CD45-expressing human cells in mouse bone marrow samples collected at 16 weeks post administration of LT-HSPCs. […]

cKit mice [4] = assay: Engraftment (percent chimerism) of edited human LT-HSPCs in irradiated mice; type: in vivo; settings: for chimerism in bone marrow: FIG. 24B
Procedure: The cells were administered by intravenous injection to cKit mice at 2 days following electroporation. Recipient mice were treated with sublethal irradiation (100 cGy) at 1 day prior to administration of LT-HSPCs to eliminate hematopoietic cells in the bone marrow and enable engraftment of the donor cells. Animals were evaluated for presence of human hematopoietic cells in peripheral blood at 8 and 16 weeks following LT-HSPC administration. The bone marrow was also evaluated for engraftment and maintenance of the HBB gene-edit at 16 weeks following LT-HSPC administration.
as §2
Human LT-HSPCs were administered to mice following electroporation with Cas9/gRNA and AAV encoding a sickle cell mutation (E7V) as shown in FIG. 21. LT-HSPCs were mobilized from healthy donors using plerixafor. LT-HSPCs were gene-edited following 2 days in culture. […] 1×10^6 cells were edited with 20 g Cas9 and 20 g gRNA.
A dose of 0.5×10^6 cells was administered by intravenous injection to cKit mice at 2 days following electroporation. Recipient mice were treated with sublethal irradiation (100 cGy) at 1 day prior to administration of LT-HSPCs to eliminate hematopoietic cells in the bone marrow and enable engraftment of the donor cells. Animals were evaluated for presence of human hematopoietic cells in peripheral blood at 8 and 16 weeks following LT-HSPC administration. The bone marrow was also evaluated for engraftment and maintenance of the HBB gene-edit at 16 weeks following LT-HSPC administration.

[5] = gRNA1, 2.5 μM Nu7441, 1.25 μM SCR7 or 10 μM RS-1, vs DMSO alone, FIG. 2A

| Compound | indel formation at the DSB site [1] | HDR efficiency [2, 5] | lineage of human leukocytes in bone marrow (cKit mice [3]; 16 weeks, compared to treatment with i53, FIG. 25) | chimerism in blood, fold increase over RNP+AAV alone (cKit mice [4]; 8 and 16 weeks, 5 μM Nu7441, FIG. 23B) [fold] | chimerism in bone marrow (cKit mice [4]; 16 weeks, AAV.304) | chimerism in blood (cKit mice [4]; both 8 and 16 weeks, 5 μM Nu7441, AAV.304, FIG. 23B) | HDR efficiency ([2]; gRNA2, 2.5 μM Nu7441) | lineage distribution of engrafted cells (cKit mice [3]; bone marrow 16 weeks, edited vs un-edited LT-HSPCs, FIG. 18B) | percent chimerism in bone marrow (cKit mice [4]; 16 weeks, 0.25×10^6 LT-HSPCs, AAV.307, FIG. 16) | levels of chimerism in blood (cKit mice [4]; blood 8 and 16 weeks, 0.5×10^6 cells, AAV.304, FIG. 23B) |
| --- | --- | --- | --- | --- | --- | --- | --- | --- | --- | --- |
| O=C(Nc1ccc(Br)cc1)c1ccc(Br)c(S(=O)(=O)NCc2ccccc2)c1 [RS-1] | reduction compared to a DMSO control | no improvement in HDR efficiency |  |  |  |  |  |  |  |  |
| O=c1cc(N2CCOCC2)oc2c(-c3cccc4c3sc3ccccc34)cccc12 [Nu7441] | decreased indel formation | improved HDR efficiency | greater proportion of CD34-expressing cells and myeloid cells | 2.5 | higher than RNP+AAV alone | approximately 25% | improved HDR efficiency |  |  |  |
| i53: polypeptide inhibitor of 53BP1 (SEQ ID NO: 70), delivered as mRNA (ORF SEQ ID NO: 69) |  |  |  |  | comparable to RNP+AAV alone |  |  | no gross changes in lineage distribution | no further decrease in chimerism | comparable to RNP+AAV alone |
| O=c1[nH]c(=S)[nH]c(N=Cc2ccccc2)c1N=Cc1ccccc1 [SCR7] | reduction compared to a DMSO control | no improvement in HDR efficiency |  |  |  |  |  |  |  |  |
